Measured values as given in US20070123546A1, “2-amino-7,8-dihydro-6H-pyrido[4,3-d]pyrimidin-5-ones” (Chiron Corporation, priority 2005, published 2007).

Each compound was assayed against His-tagged N-terminal ATP binding domain (amino acid residues 9-236) of HSP90α (Homo sapiens, UniProt P07900) (assay: HSP90 inhibitor binding potency: TRF competition binding assay). Details: Table 1; competition with biotinylated radicicol.
Description: HSP90 Inhibitor Binding Potency: TRF Binding Assay
In this example, the binding potency of HSP90 inhibitors as measured by a TRF binding assay is described.
TRF competition binding assays were performed to determine the binding potency (IC50 values) of HSP90 inhibitors. Purified His-tagged N-terminal ATP binding domain (amino acid residues 9-236) of HSP90α (HSP90α GeneID: 3320; mRNA Sequence NM_005348) was incubated for two hours at room temperature in binding buffer (50 mM HEPES, 6 mM MgCl2, 20 mM KCl and 0.1% BSA) with biotinylated radicicol and progressively higher concentrations of the competing compounds. A fraction of the mixture was transferred to capture plates (coated with streptavidin) and incubated for one hour at room temperature. After washing with DELFIA wash buffer, europium-labeled anti-his antibody was added and incubated for two hours at room temperature, followed by washing with DELFIA buffer. DELFIA enhancement solution was then added. After gentle shaking for 10 minutes, the plates were read in VICTOR for europium counts.
Compound `COc1cncc(-c2cc(F)ccc2C2Cc3nc(N)nc(C)c3C(=O)N2)c1` (stereo not drawn) [Compound 36, 2-Amino-7-[4-fluoro-2-(5-methoxy-pyridin-3-yl)-phenyl]-4-methyl-7,8-dihydro-6H-pyrido[4,3-d]pyrimidin-5-one] has an IC50 of under 10 µM. Compound `Cc1nc(N)nc2c1C(=O)N(CC(C)(C)N1CCOCC1)C(c1ccc(F)cc1-c1cncnc1)C2` (stereo not drawn) [Compound 37, 2-Amino-7-(4-fluoro-2-pyrimidin-5-yl-phenyl)-4-methyl-6-(2-methyl-2-morpholin-4-yl-propyl)-7,8-dihydro-6H-pyrido[4,3-d]pyrimidin-5-one] has an IC50 of over 10 µM. `COc1ncccc1-c1cc(F)ccc1C1Cc2nc(N)nc(C)c2C(=O)N1CC(C)(C)N1CCOCC1` (stereo not drawn) [Compound 38, 2-Amino-7-[4-fluoro-2-(2-methoxy-pyridin-3-yl)-phenyl]-4-methyl-6-(2-methyl-2-morpholin-4-yl-propyl)-7,8-dihydro-6H-pyrido[4,3-d]pyrimidin-5-one] was tested, and the IC50 was over 10 µM. Work on `COc1cccc(-c2cc(F)ccc2C2Cc3nc(N)nc(C)c3C(=O)N2CC(C)(C)N2CCOCC2)c1` (stereo not drawn) [Compound 39, 2-Amino-7-(5-fluoro-3′-methoxy-biphenyl-2-yl)-4-methyl-6-(2-methyl-2-morpholin-4-yl-propyl)-7,8-dihydro-6H-pyrido[4,3-d]pyrimidin-5-one] yielded an IC50 of over 10 µM. In the case of `COc1nc(-c2cc(F)ccc2[C@H]2Cc3nc(N)nc(C)c3C(=O)N2)ncc1C` [Compound 40, (R)-2-Amino-7-[4-fluoro-2-(4-methoxy-5-methyl-pyrimidin-2-yl)-phenyl]-4-methyl-7,8-dihydro-6H-pyrido[4,3-d]pyrimidin-5-one], the IC50 is reported as under 10 µM. In the case of `Cc1nc(N)nc2c1C(=O)NC(c1ccc(F)cc1-c1ccoc1)C2` (stereo not drawn) [Compound 41, 2-Amino-7-(4-fluoro-2-furan-3-yl-phenyl)-4-methyl-7,8-dihydro-6H-pyrido[4,3-d]pyrimidin-5-one], the IC50 is reported as under 10 µM.

Same assay, conditions: Table 2; competition with biotinylated radicicol
`COc1cncc(-c2ccccc2[C@H]2Cc3nc(N)ncc3C(=O)N2)n1` [Compound 42, (R)-2-Amino-7-[2-(6-methoxy-pyrazin-2-yl)-phenyl]-7,8-dihydro-6H-pyrido[4,3-d]pyrimidin-5-one] showed an IC50 of under 10 µM. With `COc1cccc(-c2ccccc2[C@H]2Cc3nc(N)ncc3C(=O)N2)n1` [Compound 43, (R)-2-Amino-7-[2-(6-methoxy-pyridin-2-yl)-phenyl]-7,8-dihydro-6H-pyrido[4,3-d]pyrimidin-5-one] the IC50 was under 10 µM. `COc1nc(-c2cc(F)ccc2[C@H]2Cc3nc(N)nc(C)c3C(=O)N2)ccc1N` [Compound 44, (R)-2-Amino-7-[2-(5-amino-6-methoxy-pyridin-2-yl)-4-fluoro-phenyl]-4-methyl-7,8-dihydro-6H-pyrido[4,3-d]pyrimidin-5-one] gave an IC50 of under 10 µM. `COc1nc(-c2ccccc2[C@H]2Cc3nc(N)nc(C)c3C(=O)N2)ccc1N` [Compound 45, (R)-2-Amino-7-[2-(5-amino-6-methoxy-pyridin-2-yl)-phenyl]-4-methyl-7,8-dihydro-6H-pyrido[4,3-d]pyrimidin-5-one] was tested, and the IC50 was under 10 µM. In the case of `COc1nc(-c2cc(F)ccc2[C@H]2Cc3nc(N)ncc3C(=O)N2)ccc1N` [Compound 46, (R)-2-Amino-7-[2-(5-amino-6-methoxy-pyridin-2-y1)-4-fluoro-phenyl]-7,8-dihydro-6H-pyrido[4,3-d]pyrimidin-5-one], the IC50 is reported as under 10 µM. `CCOc1ccnc(-c2cc(F)ccc2[C@H]2Cc3nc(N)nc(C)c3C(=O)N2)n1` [Compound 47, (R)-2-Amino-7-[2-(4-ethoxy-pyrimidin-2-yl)-4-fluoro-phenyl]-4-methyl-7,8-dihydro-6H-pyrido[4,3-d]pyrimidin-5-one] gave an IC50 of under 10 µM. `COc1ccnc(-c2cc(F)ccc2[C@H]2Cc3nc(N)nc(C)c3C(=O)N2)n1` [Compound 48] was tested, and the IC50 was under 10 µM. For `Cc1nc(N)nc2c1C(=O)N[C@@H](c1ccc(F)cc1-c1nccc(N3CCCC3)n1)C2` [Compound 49], the IC50 was over 10 µM. Compound `Cc1nc(N)nc2c1C(=O)N[C@@H](c1ccc(F)cc1C#N)C2` [Compound 50, 2-((R)-2-Amino-4-methyl-5-oxo-5,6,7,8-tetrahydro-pyrido[4,3-d]pyrimidin-7-yl)-5-fluoro-benzonitrile] has an IC50 of over 10 µM.
